Measured values reported in ChEMBL document CHEMBL5036332, “Glucose-Lipopeptide Conjugates Reveal the Role of Glucose Modification Position in Complexation and the Potential of Malignant Melanoma Therapy” (J Med Chem, 2021).
Active and inactive are the calls of the source. No cut-off for these calls is given here. *1 amine or outer side, *2 acyl side, *3 side chain or, on linkers, in order; H or OH if unused. Where a SMILES comes first, the peptide text is derived from it. Side-chain parts run from the residue outwards. The star is where a group is joined. NH(CH2)3O(βDGlc) = OC[C@H]1O[C@@H](OCCCN*)[C@H](O)[C@@H](O)[C@@H]1O; Glutaryl = O=C(CCCC(=O)[*:2])[*:1]; Lauroyl = CCCCCCCCCCCC(=O)*

Columns and labels:
B16-F10 [1] = assay: Cytotoxicity against mouse B16-F10 cells assessed as cell viability after 24 hrs by CCK-8 assay; format: functional, cell-based; settings: B16-F10, 24 h
[2] = molecular target: T1, Solute carrier family 2, facilitated glucose transporter member 1 (Homo sapiens) (UniProt P11166); assay: Binding affinity to GLUT1 (unknown origin) membrane assessed as free energy
T1 sequence (whole entry): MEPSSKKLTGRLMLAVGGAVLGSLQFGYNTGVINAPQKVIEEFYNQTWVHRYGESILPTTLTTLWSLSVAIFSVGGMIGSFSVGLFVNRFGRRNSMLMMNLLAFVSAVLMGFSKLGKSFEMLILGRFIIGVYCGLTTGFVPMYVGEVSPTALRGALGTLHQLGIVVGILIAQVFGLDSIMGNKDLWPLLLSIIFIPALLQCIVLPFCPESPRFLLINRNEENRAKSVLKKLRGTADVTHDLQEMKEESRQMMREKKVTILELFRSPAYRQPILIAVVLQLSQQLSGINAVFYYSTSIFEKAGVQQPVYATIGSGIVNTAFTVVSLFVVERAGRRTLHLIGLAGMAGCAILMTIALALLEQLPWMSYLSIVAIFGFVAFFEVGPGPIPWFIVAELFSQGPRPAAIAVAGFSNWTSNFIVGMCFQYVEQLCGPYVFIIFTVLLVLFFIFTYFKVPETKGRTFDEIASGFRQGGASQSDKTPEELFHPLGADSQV

[3] = molecular target: T1, Solute carrier family 2, facilitated glucose transporter member 1 (Homo sapiens); assay: Binding affinity to GLUT1 (unknown origin) assessed as binding free energy
Homo sapiens = species on record: Homo sapiens; assay: Binding affinity to membrane (unknown origin) assessed as binding free energy
B16-F10 [4] = assay: Antiinvasive activity against mouse B16-F10 cells assessed as inhibition of cell migration at 0.75 to 1.5 microM incubated for 72 hrs by transwell migration assay; format: functional, cell-based; settings: dose 0.75-1.5 µM
B16-F10 [5] = assay: Antitumor activity against mouse B16-F10 cells implanted in BALB/c mouse assessed as reduction in tumor volume at 15 mg/kg, ip administered for every 2 days; format: functional, organism-based; settings: time 2.0 day
B16-F10 [6] = assay: Antitumor activity against mouse B16-F10 cells implanted in KM mouse assessed as metastatic nodules in lungs at 10 mg/kg, iv administered for every 2 days measured after 9 days; format: functional, organism-based; settings: time 9.0 day
B16-F10 [7] = assay: Antimetastatic activity against mouse B16-F10 cells implanted in KM mouse assessed as reduction lung metastatic nodules at 200 microL of 10 mg/kg, iv administered once every 2 days by H and E staining method; format: functional, organism-based; settings: time 2.0 day
[8] = Toxicity in BALB/c mouse implanted in mouse B16-F10 cells assessed as body weight change at 15 mg/kg, ip administered for days; format: organism-based; settings: in vivo
B16-F10 [9] = assay: Antiproliferative activity against mouse B16-F10 cells assessed as inhibition of colony formation incubated for 12 days by crystal violet dye based assay; format: functional, cell-based; settings: B16-F10, 288 h
B16-F10 [10] = assay: Induction of cell membrane disruption in mouse B16-F10 cells incubated for 24 hrs by SYTO 9/PI staining based fluorescence microscopy; format: functional
B16-F10 [11] = assay: Induction of cell membrane disruption in mouse B16-F10 cells assessed as membrane permeability at 5 uM incubated for 24 hrs by trypan blue staining based light microscopy; format: functional
B16-F10 [12] = assay: Induction of cell membrane disruption in mouse B16-F10 cells assessed as shrunken morphology at 5 uM incubated for 24 hrs by scanning electron microscopy; format: functional, cell-based
B16-F10 [13] = assay: Cytotoxicity against mouse B16-F10 cells assessed as LDH release at 3.125 to 6.25 uM incubated for 24 hrs by LDH assay; format: functional, cell-based; settings: dose 3.125-6.25 µM
[14] = molecular target: T1, Solute carrier family 2, facilitated glucose transporter member 1 (Homo sapiens); assay: Induction of GLUT1-mediated human HeLa cell cytotoxicity assessed as cell viability at 12.5 uM incubated for 24 hrs by CCK-8 assay
[15] = molecular target: T1, Solute carrier family 2, facilitated glucose transporter member 1 (Homo sapiens); assay: Induction of GLUT1-mediated human A549 cell cytotoxicity assessed as cell viability at 12.5 uM incubated for 24 hrs by CCK-8 assay
B16-F10 [16] = assay: Induction of GLUT1-mediated mouse B16-F10 cell cytotoxicity assessed as cell viability at 3.125 uM incubated for 24 hrs by CCK-8 assay
[17] = molecular target: T1, Solute carrier family 2, facilitated glucose transporter member 1 (Homo sapiens); assay: Induction of GLUT1-mediated HEK293T cytotoxicity assessed as cell viability at 3.125 uM incubated for 24 hrs by CCK-8 assay
B16-F10 [18] = assay: Cytotoxicity against GLUT1 - knocked down mouse B16-F10 cells assessed as cell viability after 24 hrs by CCK-8 assay; format: functional, cell-based
B16-F10 [19] = assay: Antiinvasive activity against mouse B16-F10 cells assessed as inhibition of cell migration at 0.75 microM incubated for 72 hrs by Matrigel based transwell invasion assay; format: functional
B16-F10 [20] = assay: Cytotoxicity against mouse B16-F10 cells assessed as inhibition of spheroid proliferation at 5 uM after 3 days by 3D-shperoid assay relative to control; format: functional, cell-based; settings: time 3.0 day
[21] = Stability in 10% fetal bovine serum measured after 24 hrs; format: ADME, cell-free, Bos taurus; settings: cattle
B16-F10 [22] = assay: Anti-migration activity against mouse B16-F10 cells assessed as inhibition of spheroid migration at 2.5 uM after 3 days by crystal violet staining based assay; format: functional, cell-based; settings: time 3.0 day
[23] = Toxicity in KM mouse implanted in mouse B16-F10 cells assessed as body weight change at 10 mg/kg, iv administered for days; format: organism-based; settings: in vivo
[24] = Toxicity in BALB/c mouse implanted in mouse B16-F10 cells assessed as pathological changes in liver at 15 mg/kg, ip administered for days by H& E staining based assay; format: organism-based; settings: in vivo
[25] = Toxicity in BALB/c mouse implanted in mouse B16-F10 cells assessed as pathological changes in spleen at 15 mg/kg, ip administered for days by H& E staining based assay; format: organism-based; settings: in vivo
[26] = Toxicity in BALB/c mouse implanted in mouse B16-F10 cells assessed as pathological changes in heart at 15 mg/kg, ip administered for days by H& E staining based assay; format: organism-based; settings: in vivo
B16-F10 [27] = assay: Antitumor activity against mouse B16-F10 cells implanted in BALB/c mouse assessed as apoptotic cells in tumor tissue at 15 mg/kg, ip administered for 12 days by TUNEL assay; format: functional, organism-based; settings: time 12.0 day

SMILES | IC50 (B16-F10 [1]) | deltaG [2] | deltaG [3] | deltaG (Homo sapiens) | Activity (B16-F10 [4]) | Activity (B16-F10 [5]) | Activity (B16-F10 [6]) | Activity (B16-F10 [7]) | Activity [8] | Activity (B16-F10 [10]) | Activity (B16-F10 [11]) | Activity (B16-F10 [12]) | Activity (B16-F10 [13]) | Activity [14] | Activity [15] | Activity (B16-F10 [16]) | Activity [17] | Activity (B16-F10 [20]) | Stability [21] | Activity (B16-F10 [22]) | also measured
CCCCCCCCCCCC(=O)N[C@@H](CCCNC(=N)N)C(=O)NCC(=O)N[C@@H](Cc1c[nH]c2ccccc12)C(=O)N[C@@H](Cc1ccccc1)C(=O)N[C@@H](CCCNC(=N)N)C(=O)N[C@@H](C)C(=O)N[C@@H](CCSC)C(=O)N[C@@H](CCCNC(=N)N)C(=O)N[C@@H](CO)C(=O)N[C@H](C(=O)N[C@@H](C)C(=O)N[C@@H](CCCCNC(=O)CCCC(=O)NCCCO[C@@H]1O[C@H](CO)[C@@H](O)[C@H](O)[C@H]1O)C(=O)N[C@@H](Cc1ccccc1)C(=O)N[C@H](C(=O)N[C@@H](C)C(=O)N[C@@H](CCCNC(=N)N)C(=O)N[C@@H](CCC(=O)O)C(=O)N[C@@H](CCCNC(=N)N)C(=O)N[C@@H](CC(C)C)C(=O)N[C@@H](CCCNC(=N)N)C(=O)N[C@@H](CCC(=O)O)C(=O)N[C@@H](Cc1cnc[nH]1)C(=O)N[C@@H](CC(C)C)C(N)=O)[C@@H](C)CC)[C@@H](C)CC (Lauroyl-RGWFRAMRSIAK([Glutaryl-NH(CH2)3O(βDGlc)])FIARERLREHL-NH2) | 1.9 µM | -333 kJ/mol | -326 kJ/mol | -320 kJ/mol | Active | Active | Active | inactive | Non-Toxic | Active | Active | Active | Active | Active | Active | Active | inactive | Active | Stable | Active | IC50 (B16-F10 [9]): 0.37 µM; Activity (B16-F10 [18]): inactive; Activity (B16-F10 [19]): Active; Activity [23]: Non-Toxic; Activity [24]: Non-Toxic; Activity [25]: Non-Toxic; Activity [26]: Non-Toxic; Activity (B16-F10 [27]): Active
CCCCCCCCCCCC(=O)N[C@@H](CCCNC(=N)N)C(=O)NCC(=O)N[C@@H](Cc1c[nH]c2ccccc12)C(=O)N[C@@H](Cc1ccccc1)C(=O)N[C@@H](CCCNC(=N)N)C(=O)N[C@@H](C)C(=O)N[C@@H](CCSC)C(=O)N[C@@H](CCCNC(=N)N)C(=O)N[C@@H](CO)C(=O)N[C@H](C(=O)N[C@@H](C)C(=O)N[C@@H](CCCNC(=N)N)C(=O)N[C@@H](Cc1ccccc1)C(=O)N[C@H](C(=O)N[C@@H](C)C(=O)N[C@@H](CCCNC(=N)N)C(=O)N[C@@H](CCC(=O)O)C(=O)N[C@@H](CCCNC(=N)N)C(=O)N[C@@H](CC(C)C)C(=O)N[C@@H](CCCNC(=N)N)C(=O)N[C@@H](CCC(=O)O)C(=O)N[C@@H](Cc1cnc[nH]1)C(=O)N[C@@H](CC(C)C)C(N)=O)[C@@H](C)CC)[C@@H](C)CC (HELM PEPTIDE1{[CCCCCCCCCCCC(=O)[*:2]].R.G.W.F.R.A.M.R.S.I.A.R.F.I.A.R.E.R.L.R.E.H.L.[am]}$$$$V2.0) | 3 µM | -282 kJ/mol | -278 kJ/mol | -275 kJ/mol | inactive | inactive | inactive | inactive | Non-Toxic | Active | Active | Active | Active | Active | Active | Active | Active | Active | Stable | Active | Activity [23]: Non-Toxic; Activity [24]: Non-Toxic; Activity [25]: Non-Toxic; Activity [26]: Non-Toxic; Activity (B16-F10 [27]): Active
